Reference: US11629143B2, “HipK4 inhibitors and uses thereof” (Vibliome Therapeutics, LLC, priority 2020, dated 2023)

Assays:
Assay in all cases: Kinase panel (mobility shift)
Format in all cases: biochemical
[1] = target: T1, AXL (Homo sapiens, UniProt P30530)
T1 sequence (P30530 26-894): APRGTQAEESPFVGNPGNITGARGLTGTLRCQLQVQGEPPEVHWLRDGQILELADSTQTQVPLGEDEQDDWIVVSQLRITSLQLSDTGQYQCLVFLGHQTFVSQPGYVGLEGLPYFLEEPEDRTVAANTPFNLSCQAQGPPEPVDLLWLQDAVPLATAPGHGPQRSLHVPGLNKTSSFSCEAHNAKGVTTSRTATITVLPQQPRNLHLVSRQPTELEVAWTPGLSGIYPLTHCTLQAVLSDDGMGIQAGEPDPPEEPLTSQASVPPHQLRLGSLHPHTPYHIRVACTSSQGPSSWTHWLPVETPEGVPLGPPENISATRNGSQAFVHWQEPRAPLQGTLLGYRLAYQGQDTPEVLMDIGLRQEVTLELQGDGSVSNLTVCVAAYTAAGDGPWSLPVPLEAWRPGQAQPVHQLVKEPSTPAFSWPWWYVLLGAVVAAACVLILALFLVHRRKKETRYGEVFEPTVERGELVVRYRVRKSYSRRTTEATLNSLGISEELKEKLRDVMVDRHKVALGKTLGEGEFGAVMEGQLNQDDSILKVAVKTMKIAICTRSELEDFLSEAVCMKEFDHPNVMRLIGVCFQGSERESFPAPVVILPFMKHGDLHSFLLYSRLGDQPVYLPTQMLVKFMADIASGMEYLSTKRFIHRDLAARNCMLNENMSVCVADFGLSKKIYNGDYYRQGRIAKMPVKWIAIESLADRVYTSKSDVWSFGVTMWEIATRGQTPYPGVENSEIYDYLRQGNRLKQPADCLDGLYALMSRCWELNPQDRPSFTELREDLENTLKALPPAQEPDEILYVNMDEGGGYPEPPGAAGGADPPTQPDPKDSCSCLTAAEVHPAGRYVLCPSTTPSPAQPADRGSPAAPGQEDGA
Method in brief: (§1)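 Tested at a single 5 um concentration within a 299-kinase panel, compounds were scored by electrophoretic mobility shift of a fluorescent substrate into product. Categories: A, 95% or greater; B, 90%-94%; C, 80%-89%.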

[2] = target: T2, EPH-A6 (Homo sapiens, UniProt Q9UF33)
T2 sequence (Q9UF33 23-1036): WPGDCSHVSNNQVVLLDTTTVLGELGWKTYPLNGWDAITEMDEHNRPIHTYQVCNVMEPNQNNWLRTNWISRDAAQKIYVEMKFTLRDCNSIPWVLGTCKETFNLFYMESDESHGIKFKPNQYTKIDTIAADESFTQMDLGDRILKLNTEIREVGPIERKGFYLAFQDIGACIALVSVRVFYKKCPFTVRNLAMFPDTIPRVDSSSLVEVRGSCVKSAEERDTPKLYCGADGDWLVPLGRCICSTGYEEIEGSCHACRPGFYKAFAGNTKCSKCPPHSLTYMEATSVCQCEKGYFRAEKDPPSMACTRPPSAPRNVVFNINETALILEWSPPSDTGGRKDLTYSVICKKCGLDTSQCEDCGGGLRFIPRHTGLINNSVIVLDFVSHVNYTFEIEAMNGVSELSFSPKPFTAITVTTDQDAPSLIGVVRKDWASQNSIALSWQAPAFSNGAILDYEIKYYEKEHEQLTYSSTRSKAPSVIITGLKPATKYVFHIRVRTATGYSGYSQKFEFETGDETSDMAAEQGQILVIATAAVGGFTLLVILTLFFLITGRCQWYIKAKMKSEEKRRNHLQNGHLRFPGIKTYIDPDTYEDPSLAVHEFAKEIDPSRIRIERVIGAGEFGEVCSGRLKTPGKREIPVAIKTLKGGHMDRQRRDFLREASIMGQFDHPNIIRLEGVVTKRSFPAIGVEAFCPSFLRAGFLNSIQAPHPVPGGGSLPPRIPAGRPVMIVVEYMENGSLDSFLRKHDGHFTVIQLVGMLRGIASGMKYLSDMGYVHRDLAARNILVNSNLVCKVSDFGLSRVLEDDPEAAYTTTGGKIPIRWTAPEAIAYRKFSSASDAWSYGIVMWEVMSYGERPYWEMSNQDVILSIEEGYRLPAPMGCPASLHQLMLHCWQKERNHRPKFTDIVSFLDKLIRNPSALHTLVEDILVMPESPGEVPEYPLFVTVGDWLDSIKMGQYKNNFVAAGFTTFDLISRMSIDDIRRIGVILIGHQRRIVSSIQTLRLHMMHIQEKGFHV
Method in brief: as §1

[3] = target: T3, TAOK3 (Homo sapiens, UniProt Q9H2K8)
T3 sequence (Q9H2K8 1-898): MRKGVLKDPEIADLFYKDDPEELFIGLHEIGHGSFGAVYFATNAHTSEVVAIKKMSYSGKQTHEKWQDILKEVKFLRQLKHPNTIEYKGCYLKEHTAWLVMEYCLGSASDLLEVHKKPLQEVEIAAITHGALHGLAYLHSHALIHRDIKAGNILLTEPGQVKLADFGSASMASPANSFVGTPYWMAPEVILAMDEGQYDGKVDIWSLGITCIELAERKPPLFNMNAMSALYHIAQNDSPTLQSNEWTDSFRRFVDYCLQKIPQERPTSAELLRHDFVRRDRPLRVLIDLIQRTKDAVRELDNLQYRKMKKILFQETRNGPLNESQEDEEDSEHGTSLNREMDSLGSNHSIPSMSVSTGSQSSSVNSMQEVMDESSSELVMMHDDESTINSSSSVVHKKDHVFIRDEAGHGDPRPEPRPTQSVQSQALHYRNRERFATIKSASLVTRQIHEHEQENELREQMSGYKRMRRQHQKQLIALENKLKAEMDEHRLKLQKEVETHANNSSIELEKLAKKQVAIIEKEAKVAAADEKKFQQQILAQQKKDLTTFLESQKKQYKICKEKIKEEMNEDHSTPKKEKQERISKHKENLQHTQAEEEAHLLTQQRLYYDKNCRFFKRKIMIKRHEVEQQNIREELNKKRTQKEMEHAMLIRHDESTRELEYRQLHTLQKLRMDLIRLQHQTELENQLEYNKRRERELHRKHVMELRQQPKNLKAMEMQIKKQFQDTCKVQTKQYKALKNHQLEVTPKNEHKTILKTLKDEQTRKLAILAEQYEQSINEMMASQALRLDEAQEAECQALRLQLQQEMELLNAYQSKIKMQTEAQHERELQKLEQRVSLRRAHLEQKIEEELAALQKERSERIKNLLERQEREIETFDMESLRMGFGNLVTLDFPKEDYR
Method in brief: as §1

Compound | inhibition at 5 µM [1] [%] | inhibition at 5 µM [2] [%] | inhibition at 5 µM [3] [%]
CNC(=O)c1cc(Oc2ccc(NC(=O)c3nc(SC)oc3-c3ccc(F)cc3Cl)cc2)ccn1 [Compound 3] | 80 to 89 | 50 to 79 | < 50
CSc1nc(C(=O)Nc2ccc(Oc3ccnc(C(=O)NCCN(C)C)c3)c(F)c2)c(-c2ccc(F)cc2)o1 [Compound 41] | < 50 | 80 to 89 | 50 to 79
CNC(=O)c1cc(Oc2ccc(NC(=O)c3nc(NC)oc3-c3ccc(F)s3)cc2F)ccn1 [Compound 17] | < 50 | < 50 | < 50
COc1nc(C(=O)Nc2ccc(Oc3ccnc(C(=O)NCC(F)(F)F)c3)c(F)c2)c(-c2ccc(F)cc2)o1 [Compound 43] | < 50 | < 50 | < 50
CNC(=O)c1cc(Oc2ccc(NC(=O)c3nc(COC)oc3-c3ccc(F)cc3)cc2F)ccn1 [Compound 30] | 50 to 79 | ≥ 95 | 80 to 89
CSc1nc(C(=O)Nc2ccc(Oc3ccnc(C(=O)NC4COC4)c3)c(F)c2)c(-c2ccc(F)c(F)c2)o1 [Compound 37] | < 50 | < 50 | < 50
CNC(=O)c1cc(Oc2ccc(NC(=O)c3nc(SC)oc3-c3ccc(Cl)s3)cc2)ccn1 [Compound 5] | < 50 | 50 to 79 | < 50
[2H]C([2H])([2H])NC(=O)c1cc(Oc2ccc(NC(=O)c3nc(SC)oc3-c3ccc(F)c(F)c3)cc2F)ccn1 [Compound 33] | < 50 | 50 to 79 | 50 to 79
CNC(=O)c1cc(Oc2ccc(NC(=O)c3nc(SC)oc3-c3ccc(F)cc3F)cc2F)ccn1 [Compound 12] | 50 to 79 | 80 to 89 | 50 to 79
CSc1nc(C(=O)Nc2ccc(Oc3ccnc(C(=O)NC4CCN(C)CC4)c3)c(F)c2)c(-c2ccc(F)cc2)o1 [Compound 42] | < 50 | 50 to 79 | < 50
CSc1nc(C(=O)Nc2ccc(Oc3ccnc(N)c3Cl)c(F)c2)c(-c2ccc(F)cc2)o1 [Compound 1] | < 50 | < 50 | < 50
CSc1nc(C(=O)Nc2ccc(Oc3ccnc(C(=O)NC4COC4)c3)c(F)c2)c(-c2ccc(F)s2)o1 [Compound 28] | < 50 | < 50 | < 50
CNC(=O)c1ccc(Oc2ccc(NC(=O)c3nc(Cl)oc3-c3ccc(F)cc3)c(F)c2)cn1 [Compound 36] | < 50 | 50 to 79 | < 50
CSc1nc(C(=O)Nc2ccc(Oc3ccnc(C(=O)NC4CNC4)c3)c(F)c2)c(-c2ccc(F)cc2)o1 [Compound 29] | 50 to 79 | 80 to 89 | 50 to 79
CNC(=O)c1cc(Oc2ccc(NC(=O)c3nc(SC)oc3-c3ccc(F)c(F)c3)cc2)ccn1 [Compound 4] | < 50 | 50 to 79 | 50 to 79
CNC(=O)c1cc(Oc2ccc(NC(=O)c3nc(SC)oc3-c3ccc(OC)cc3)cc2)ccn1 [Compound 7] | < 50 | < 50 | < 50
[2H]C([2H])([2H])NC(=O)c1cc(Oc2ccc(NC(=O)c3nc(SC)oc3-c3ccc(F)s3)cc2F)ccn1 [Compound 35] | < 50 | 50 to 79 | < 50
